Values belong to the compound of their own block, whether it stands above or below them.
Key:
Test in all cases: KINOMEscan kinase binding assay (Eurofins/DiscoveRx), % Ctrl
Conditions in all cases: 1 μM
[1] = molecular target: T1, kinases (Homo sapiens, UniProt P00533, L858R)
T1 construct: purchased Eurofins/DiscoveRx; host or cells: E. coli BL21-derived host (T7 phage display) for most kinases; HEK-293 for the rest
Summary of the method: (§1)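 Read-out is qPCR of kinase eluted from ligand-coated streptavidin beads after 1 h room-temperature competition with test compound. Values are % Ctrl at the tested concentration, lower meaning tighter binding.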

[2] = molecular target: T2, kinases (Homo sapiens, UniProt P09619)
T2 construct: purchased Eurofins/DiscoveRx; host or cells: E. coli BL21-derived host (T7 phage display) for most kinases; HEK-293 for the rest
Summary of the method: as §1

[3] = molecular target: T3, kinases (Homo sapiens, UniProt P00519)
T3 construct: purchased Eurofins/DiscoveRx; host or cells: E. coli BL21-derived host (T7 phage display) for most kinases; HEK-293 for the rest
Summary of the method: as §1

[4] = molecular target: T4, kinases (Homo sapiens, UniProt P10721, V559D/V654A)
T4 construct: purchased Eurofins/DiscoveRx; host or cells: E. coli BL21-derived host (T7 phage display) for most kinases; HEK-293 for the rest
Summary of the method: as §1

[5] = molecular target: T5, kinases (Homo sapiens, UniProt P07949, M918T)
T5 construct: purchased Eurofins/DiscoveRx; host or cells: E. coli BL21-derived host (T7 phage display) for most kinases; HEK-293 for the rest
Summary of the method: as §1

[6] = molecular target: T6, kinases (Homo sapiens, UniProt P00519, H396P)
T6 construct: purchased Eurofins/DiscoveRx; host or cells: E. coli BL21-derived host (T7 phage display) for most kinases; HEK-293 for the rest
Summary of the method: as §1

[7] = molecular target: T7, kinases (Homo sapiens, UniProt P00519, F317I)
T7 construct: purchased Eurofins/DiscoveRx; host or cells: E. coli BL21-derived host (T7 phage display) for most kinases; HEK-293 for the rest
Summary of the method: as §1

[8] = molecular target: T8, kinases (Homo sapiens, UniProt P07949, V804L)
T8 construct: purchased Eurofins/DiscoveRx; host or cells: E. coli BL21-derived host (T7 phage display) for most kinases; HEK-293 for the rest
Summary of the method: as §1

[9] = molecular target: T9, kinases (Homo sapiens, UniProt P00533, L858R/T790M)
T9 construct: purchased Eurofins/DiscoveRx; host or cells: E. coli BL21-derived host (T7 phage display) for most kinases; HEK-293 for the rest
Summary of the method: as §1

[10] = molecular target: T10, kinases (Homo sapiens, UniProt P35916)
T10 construct: purchased Eurofins/DiscoveRx; host or cells: E. coli BL21-derived host (T7 phage display) for most kinases; HEK-293 for the rest
Summary of the method: as §1

[11] = molecular target: T11, kinases (Homo sapiens, UniProt P10721, L576P)
T11 construct: purchased Eurofins/DiscoveRx; host or cells: E. coli BL21-derived host (T7 phage display) for most kinases; HEK-293 for the rest
Summary of the method: as §1

[12] = molecular target: T12, kinases (Homo sapiens, UniProt P36888)
T12 construct: purchased Eurofins/DiscoveRx; host or cells: E. coli BL21-derived host (T7 phage display) for most kinases; HEK-293 for the rest
T12 sequence (P36888 27-993): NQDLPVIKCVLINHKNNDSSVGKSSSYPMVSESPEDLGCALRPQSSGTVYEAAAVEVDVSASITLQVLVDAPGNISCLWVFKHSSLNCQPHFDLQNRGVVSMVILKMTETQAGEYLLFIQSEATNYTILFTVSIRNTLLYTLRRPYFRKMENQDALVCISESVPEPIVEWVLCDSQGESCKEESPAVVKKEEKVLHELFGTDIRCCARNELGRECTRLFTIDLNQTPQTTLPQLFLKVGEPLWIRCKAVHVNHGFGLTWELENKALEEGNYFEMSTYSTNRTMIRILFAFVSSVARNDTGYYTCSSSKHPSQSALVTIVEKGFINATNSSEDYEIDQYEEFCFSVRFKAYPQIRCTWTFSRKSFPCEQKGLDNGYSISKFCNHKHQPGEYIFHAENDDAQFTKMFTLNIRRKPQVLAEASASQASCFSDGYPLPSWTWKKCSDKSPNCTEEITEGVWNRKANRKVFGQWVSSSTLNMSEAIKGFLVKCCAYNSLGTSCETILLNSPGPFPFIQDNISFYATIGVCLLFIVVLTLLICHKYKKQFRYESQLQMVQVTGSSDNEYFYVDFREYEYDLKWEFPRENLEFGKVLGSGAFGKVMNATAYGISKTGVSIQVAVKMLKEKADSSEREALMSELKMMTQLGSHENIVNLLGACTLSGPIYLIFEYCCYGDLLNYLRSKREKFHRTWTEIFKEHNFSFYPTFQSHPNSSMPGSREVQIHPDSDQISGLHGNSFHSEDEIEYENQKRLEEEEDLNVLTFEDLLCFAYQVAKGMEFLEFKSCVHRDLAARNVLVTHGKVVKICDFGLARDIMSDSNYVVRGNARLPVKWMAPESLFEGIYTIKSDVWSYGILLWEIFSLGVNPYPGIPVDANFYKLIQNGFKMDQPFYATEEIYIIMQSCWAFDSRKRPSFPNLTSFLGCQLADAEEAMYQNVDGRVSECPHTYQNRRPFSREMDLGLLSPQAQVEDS
Summary of the method: as §1

[13] = molecular target: T13, kinases (Homo sapiens, UniProt P00519, Y253F)
T13 construct: purchased Eurofins/DiscoveRx; host or cells: E. coli BL21-derived host (T7 phage display) for most kinases; HEK-293 for the rest
Summary of the method: as §1

[14] = molecular target: T14, kinases (Homo sapiens, UniProt P00533, L861Q)
T14 construct: purchased Eurofins/DiscoveRx; host or cells: E. coli BL21-derived host (T7 phage display) for most kinases; HEK-293 for the rest
Summary of the method: as §1

[15] = molecular target: T15, kinases (Homo sapiens, UniProt P00533)
T15 construct: purchased Eurofins/DiscoveRx; host or cells: E. coli BL21-derived host (T7 phage display) for most kinases; HEK-293 for the rest
Summary of the method: as §1

T5 sequence (P07949 29-1114 M918T): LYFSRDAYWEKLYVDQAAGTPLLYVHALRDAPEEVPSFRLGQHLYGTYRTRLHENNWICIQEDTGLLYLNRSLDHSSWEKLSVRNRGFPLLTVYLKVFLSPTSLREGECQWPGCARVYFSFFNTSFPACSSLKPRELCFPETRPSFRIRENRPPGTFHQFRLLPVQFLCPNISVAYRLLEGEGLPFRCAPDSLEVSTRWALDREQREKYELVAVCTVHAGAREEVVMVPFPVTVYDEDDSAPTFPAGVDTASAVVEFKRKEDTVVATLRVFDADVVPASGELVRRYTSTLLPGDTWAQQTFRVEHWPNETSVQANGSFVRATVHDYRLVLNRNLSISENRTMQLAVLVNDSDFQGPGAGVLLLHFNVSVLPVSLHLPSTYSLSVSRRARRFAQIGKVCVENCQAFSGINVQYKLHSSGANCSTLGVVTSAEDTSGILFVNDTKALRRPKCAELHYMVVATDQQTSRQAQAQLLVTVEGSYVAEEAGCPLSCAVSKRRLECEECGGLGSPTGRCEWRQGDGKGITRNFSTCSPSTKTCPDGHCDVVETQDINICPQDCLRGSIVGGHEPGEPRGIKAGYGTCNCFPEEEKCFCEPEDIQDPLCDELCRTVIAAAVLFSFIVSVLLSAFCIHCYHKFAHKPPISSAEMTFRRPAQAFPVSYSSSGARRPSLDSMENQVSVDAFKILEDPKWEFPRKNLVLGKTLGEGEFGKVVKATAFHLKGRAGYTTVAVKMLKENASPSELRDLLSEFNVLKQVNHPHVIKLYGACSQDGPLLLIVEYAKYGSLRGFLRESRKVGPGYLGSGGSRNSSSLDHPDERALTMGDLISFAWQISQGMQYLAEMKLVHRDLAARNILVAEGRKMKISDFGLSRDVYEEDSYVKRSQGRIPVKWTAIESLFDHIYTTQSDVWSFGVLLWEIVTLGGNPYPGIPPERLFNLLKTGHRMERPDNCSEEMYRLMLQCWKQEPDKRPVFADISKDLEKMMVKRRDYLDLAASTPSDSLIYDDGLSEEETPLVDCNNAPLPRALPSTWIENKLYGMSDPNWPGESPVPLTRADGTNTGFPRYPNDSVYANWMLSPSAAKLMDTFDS
T2 sequence (P09619 33-1106): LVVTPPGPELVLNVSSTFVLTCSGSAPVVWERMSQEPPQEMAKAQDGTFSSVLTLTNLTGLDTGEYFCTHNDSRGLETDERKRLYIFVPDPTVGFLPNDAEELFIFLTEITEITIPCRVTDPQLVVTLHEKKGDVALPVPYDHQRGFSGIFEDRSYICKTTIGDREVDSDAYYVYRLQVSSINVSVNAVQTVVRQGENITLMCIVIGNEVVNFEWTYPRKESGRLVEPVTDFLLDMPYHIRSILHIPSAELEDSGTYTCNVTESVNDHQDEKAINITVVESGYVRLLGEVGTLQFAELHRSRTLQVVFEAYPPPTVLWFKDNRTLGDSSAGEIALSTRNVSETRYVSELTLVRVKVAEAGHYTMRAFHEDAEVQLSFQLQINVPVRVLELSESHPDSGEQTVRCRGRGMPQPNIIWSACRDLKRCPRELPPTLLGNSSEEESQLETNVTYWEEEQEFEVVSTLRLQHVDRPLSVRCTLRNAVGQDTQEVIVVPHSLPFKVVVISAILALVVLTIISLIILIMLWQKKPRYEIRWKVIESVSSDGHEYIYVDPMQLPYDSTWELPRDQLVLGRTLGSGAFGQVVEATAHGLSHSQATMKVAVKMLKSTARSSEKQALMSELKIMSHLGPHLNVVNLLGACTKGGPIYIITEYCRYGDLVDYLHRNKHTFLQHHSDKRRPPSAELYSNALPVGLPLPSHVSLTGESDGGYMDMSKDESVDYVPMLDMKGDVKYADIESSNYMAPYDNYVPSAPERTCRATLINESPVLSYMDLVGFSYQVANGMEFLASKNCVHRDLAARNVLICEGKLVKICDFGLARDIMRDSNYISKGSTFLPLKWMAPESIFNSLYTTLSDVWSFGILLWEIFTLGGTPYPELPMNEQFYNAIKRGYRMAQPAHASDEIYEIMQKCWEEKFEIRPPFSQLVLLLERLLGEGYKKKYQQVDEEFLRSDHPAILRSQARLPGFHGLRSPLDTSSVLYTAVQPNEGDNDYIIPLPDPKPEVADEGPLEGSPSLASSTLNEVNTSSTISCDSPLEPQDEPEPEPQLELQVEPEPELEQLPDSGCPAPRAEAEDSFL
T8 sequence (P07949 29-1114 V804L): as the sequence (P07949 29-1114 M918T) above, with V776L, T890M counted along it
T10 sequence (P35916 25-1363): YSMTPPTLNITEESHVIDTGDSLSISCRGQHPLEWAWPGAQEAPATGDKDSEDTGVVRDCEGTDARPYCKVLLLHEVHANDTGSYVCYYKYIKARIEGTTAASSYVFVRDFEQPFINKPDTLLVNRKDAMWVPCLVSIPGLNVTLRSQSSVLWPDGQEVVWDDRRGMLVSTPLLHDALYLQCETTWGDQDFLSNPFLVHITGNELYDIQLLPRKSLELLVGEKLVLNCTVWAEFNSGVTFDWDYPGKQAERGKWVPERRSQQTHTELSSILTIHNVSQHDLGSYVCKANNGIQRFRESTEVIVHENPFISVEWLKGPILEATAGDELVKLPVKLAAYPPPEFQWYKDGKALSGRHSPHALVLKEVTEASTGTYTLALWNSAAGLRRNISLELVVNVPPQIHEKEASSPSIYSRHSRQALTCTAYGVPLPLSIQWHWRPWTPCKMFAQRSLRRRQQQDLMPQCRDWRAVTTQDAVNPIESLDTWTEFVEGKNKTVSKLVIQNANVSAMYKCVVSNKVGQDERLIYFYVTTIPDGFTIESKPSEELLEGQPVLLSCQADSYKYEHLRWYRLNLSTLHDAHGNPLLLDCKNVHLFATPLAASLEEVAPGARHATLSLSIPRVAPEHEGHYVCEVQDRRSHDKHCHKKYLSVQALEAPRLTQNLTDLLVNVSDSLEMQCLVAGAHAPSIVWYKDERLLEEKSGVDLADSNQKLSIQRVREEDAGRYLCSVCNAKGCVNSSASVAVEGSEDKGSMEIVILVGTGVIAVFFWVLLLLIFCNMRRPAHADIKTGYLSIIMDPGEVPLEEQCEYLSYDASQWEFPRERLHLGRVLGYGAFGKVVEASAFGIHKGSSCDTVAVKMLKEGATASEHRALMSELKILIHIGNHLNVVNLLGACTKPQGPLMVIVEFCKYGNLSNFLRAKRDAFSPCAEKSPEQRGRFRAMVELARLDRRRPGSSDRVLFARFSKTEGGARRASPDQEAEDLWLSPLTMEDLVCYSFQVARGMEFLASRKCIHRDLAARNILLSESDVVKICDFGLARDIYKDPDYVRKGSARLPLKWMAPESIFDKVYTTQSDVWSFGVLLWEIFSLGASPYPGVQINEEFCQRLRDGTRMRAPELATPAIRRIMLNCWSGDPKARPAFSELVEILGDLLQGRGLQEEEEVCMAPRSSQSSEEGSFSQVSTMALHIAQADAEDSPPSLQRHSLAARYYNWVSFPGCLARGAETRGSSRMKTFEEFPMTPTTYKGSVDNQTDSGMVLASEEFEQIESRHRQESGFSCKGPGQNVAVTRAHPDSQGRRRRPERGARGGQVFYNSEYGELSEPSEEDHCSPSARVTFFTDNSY
T11 sequence (P10721 26-976 L576P): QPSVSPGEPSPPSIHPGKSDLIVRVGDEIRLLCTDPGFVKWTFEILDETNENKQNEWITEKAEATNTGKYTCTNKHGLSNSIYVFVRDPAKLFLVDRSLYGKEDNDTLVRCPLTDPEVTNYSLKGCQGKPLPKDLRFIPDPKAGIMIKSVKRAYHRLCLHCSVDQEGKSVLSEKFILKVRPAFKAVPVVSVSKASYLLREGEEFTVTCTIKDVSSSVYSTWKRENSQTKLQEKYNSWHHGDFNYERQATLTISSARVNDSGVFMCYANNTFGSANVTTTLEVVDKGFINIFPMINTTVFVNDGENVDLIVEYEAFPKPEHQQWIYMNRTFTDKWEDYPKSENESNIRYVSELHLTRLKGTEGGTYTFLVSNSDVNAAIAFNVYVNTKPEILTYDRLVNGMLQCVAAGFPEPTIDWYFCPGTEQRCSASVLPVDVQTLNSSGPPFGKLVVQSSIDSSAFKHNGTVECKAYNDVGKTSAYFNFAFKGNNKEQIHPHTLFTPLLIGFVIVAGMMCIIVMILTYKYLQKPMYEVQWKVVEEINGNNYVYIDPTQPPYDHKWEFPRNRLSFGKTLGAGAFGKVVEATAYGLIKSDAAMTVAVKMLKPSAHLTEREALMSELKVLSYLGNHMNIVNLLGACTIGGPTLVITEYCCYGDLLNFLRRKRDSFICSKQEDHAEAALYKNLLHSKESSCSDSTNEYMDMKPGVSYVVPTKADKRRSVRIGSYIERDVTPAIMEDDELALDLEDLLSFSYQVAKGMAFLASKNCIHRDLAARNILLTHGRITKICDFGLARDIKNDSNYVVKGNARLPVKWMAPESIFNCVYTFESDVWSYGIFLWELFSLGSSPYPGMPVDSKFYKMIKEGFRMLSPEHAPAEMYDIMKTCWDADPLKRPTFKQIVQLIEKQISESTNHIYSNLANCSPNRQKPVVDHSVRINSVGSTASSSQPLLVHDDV
T4 sequence (P10721 26-976 V559D/V654A): as the sequence (P10721 26-976 L576P) above, with V534D, P551L, V629A counted along it

% Ctrl, EGFR(L858R) ([1]; target EGFR(L858R)): 77 % Ctrl
% Ctrl, PDGFRB ([2]; target PDGFRB): 96 % Ctrl
% Ctrl, ABL1-nonphosphorylated ([3]; target ABL1-nonphosphorylated): 82 % Ctrl
% Ctrl, ABL1-phosphorylated ([3]; target ABL1-phosphorylated): 82 % Ctrl
% Ctrl, KIT(V559D, V654A) ([4]; target KIT(V559D, V654A)): 100 % Ctrl
% Ctrl, RET(M918T) ([5]; target RET(M918T)): 90 % Ctrl
% Ctrl, ABL1(H396P)-nonphosphorylated ([6]; target ABL1(H396P)-nonphosphorylated): 100 % Ctrl
% Ctrl, ABL1(H396P)-phosphorylated ([6]; target ABL1(H396P)-phosphorylated): 100 % Ctrl
% Ctrl, ABL1(F317I)-nonphosphorylated ([7]; target ABL1(F317I)-nonphosphorylated): 95 % Ctrl
% Ctrl, ABL1(F317I)-phosphorylated ([7]; target ABL1(F317I)-phosphorylated): 88 % Ctrl
% Ctrl, RET(V804L) ([8]; target RET(V804L)): 77 % Ctrl
% Ctrl, EGFR(L858R, T790M) ([9]; target EGFR(L858R, T790M)): 83 % Ctrl
% Ctrl, FLT4 ([10]; target FLT4): 95 % Ctrl
% Ctrl, KIT(L576P) ([11]; target KIT(L576P)): 94 % Ctrl
% Ctrl, FLT3-autoinhibited ([12]; target FLT3-autoinhibited): 82 % Ctrl
% Ctrl, FLT3 ([12]; target FLT3): 71 % Ctrl
% Ctrl, ABL1(Y253F)-phosphorylated ([13]; target ABL1(Y253F)-phosphorylated): 100 % Ctrl
% Ctrl, EGFR(L861Q) ([14]; target EGFR(L861Q)): 69 % Ctrl
% Ctrl, EGFR ([15]; target EGFR): 61 % Ctrl
Structure (SMILES): Cc1nn(C)c2c1-c1ccc3c(c1)/C(=C/c1[nH]ccc1C(=O)N(C)CCCO2)C(=O)N3 [Ex. 150, [3a(4)Z]-9,14,16-trimethyl-10,11,13,14-tetrahydro-2H-1,17-(ethanediylidene)pyrazolo[4,3-m]dipyrrolo[3,2-f:3′,4′-i][1,4]oxazacyclopentadecine-3,8(5H,9H)-dione]

% Ctrl, EGFR(L858R) ([1]; EGFR(L858R)): 95 % Ctrl
% Ctrl, PDGFRB ([2]; PDGFRB): 60 % Ctrl
% Ctrl, ABL1-nonphosphorylated ([3]; ABL1-nonphosphorylated): 65 % Ctrl
% Ctrl, ABL1-phosphorylated ([3]; ABL1-phosphorylated): 68 % Ctrl
% Ctrl, KIT(V559D, V654A) ([4]; KIT(V559D, V654A)): 83 % Ctrl
% Ctrl, RET(M918T) ([5]; RET(M918T)): 26 % Ctrl
% Ctrl, ABL1(H396P)-nonphosphorylated ([6]; ABL1(H396P)-nonphosphorylated): 49 % Ctrl
% Ctrl, ABL1(H396P)-phosphorylated ([6]; ABL1(H396P)-phosphorylated): 67 % Ctrl
% Ctrl, ABL1(F317I)-nonphosphorylated ([7]; ABL1(F317I)-nonphosphorylated): 93 % Ctrl
% Ctrl, ABL1(F317I)-phosphorylated ([7]; ABL1(F317I)-phosphorylated): 89 % Ctrl
% Ctrl, RET(V804L) ([8]; RET(V804L)): 58 % Ctrl
% Ctrl, EGFR(L858R, T790M) ([9]; EGFR(L858R, T790M)): 95 % Ctrl
% Ctrl, FLT4 ([10]; FLT4): 98 % Ctrl
% Ctrl, KIT(L576P) ([11]; KIT(L576P)): 8.7 % Ctrl
% Ctrl, FLT3 ([12]; FLT3): 48 % Ctrl
% Ctrl, FLT3-autoinhibited ([12]; FLT3-autoinhibited): 95 % Ctrl
% Ctrl, ABL1(Y253F)-phosphorylated ([13]; ABL1(Y253F)-phosphorylated): 57 % Ctrl
% Ctrl, EGFR(L861Q) ([14]; EGFR(L861Q)): 97 % Ctrl
% Ctrl, EGFR ([15]; EGFR): 99 % Ctrl
Structure (SMILES): Cc1cc2c([nH]1)/C=C1\C(=O)Nc3cc(Cl)c(cc31)OCCO[C@@H](C(=O)NC1CNC1)CN(C)C2=O [Ex. 133, [7R,16a(17)Z]-N-(azetidin-3-yl)-19-chloro-2,5-dimethyl-4,16-dioxo-4,5,6,7,9,10,15,16-octahydro-1H-12,14-(ethanediylidene)dipyrrolo[3,2-i:3′,4′-l][1,4,7]dioxazacyclopentadecine-7-carboxamide]
